Assay results taken from US10335400B2, “Treatment of tauopathies with mGluR5 antagonists” (priority 2014, dated 2019).

How the values were obtained:
PP2A = PP2A activity (phosphatase ELISA) and PP2Ac protein level in BMAA-treated mouse mixed primary neuronal cultures; format: cell-based; details: BMAA 100 μM to 1 mM, 3-48 h
Experimental: Mouse hippocampal neuronal cultures were prepared from d 18 embryos as previously described (1). Briefly, C57BL/6 pregnant female mice from Charles River Laboratories were killed by cervical dislocation. All studies were performed in accordance with the recommendations in the Guide for the Care and Use of Laboratory Animals of the National Institutes of Health (2). The protocol was approved by Institutional Animal Care and Use Committee of the New York Institute for Basic Research in Developmental Disabilities. All surgeries were performed under anesthesia, and all efforts were made to minimize suffering. Embryos were removed and placed in cold Hibernate A (BrainBits, LLC), and all the following steps were performed in ice-cold Hibernate A, under a stereoscopic (dissection) microscope placed in a laminar flow hood. Fetal brains were removed carefully, and forebrains were separated. The hippocampus, including the cortex surrounding the area of the hippocampus, was dissected and cut into small pieces using microsurgical scissors. […]
PP2A activity was assayed with homogenate of rat brain slices using the phosphatase ELISA described previously (5). […] Finally 75 μL of 3,3′,5,5′-Tetramethylbenzidine substrate reagent (Sigma) was added, and the colorimetric development was measured using a microtiter plate reader at a wavelength of 650 nm. […]

tau = test: Tau phosphorylation (Western blots) in metabolically active rat brain slices; format: cell-based; details: 1 mM BMAA, 2-3 h, adult Wistar rat brain slices
Experimental: Male Wistar rats (Charles River Laboratories), 2-3 months old, were anesthetized by i.p. injection with 50 mg/kg Nembutal. The animals were decapitated when deeply anesthetized. The brains were removed immediately and cooled in ice-cold (4° C.) oxygenated artificial cerebrospinal fluid (aCSF) consisting of 126 mM NaCl, 3.5 mM KCl, 1.2 mM NaH2PO4, 1.3 mM MgCl2, 2 mM CaCl2, 11 mM D(+) glucose, and 25 mM NaHCO3 (pH 7.4) for 7-8 min. Each brain then was divided sagittally, and 400-μm-thick coronal slices were made with a Camden Vibraslicer (WP, Inc.). The slices were transferred into a chamber containing the oxygenated aCSF and were incubated at 33° C. for 2 h in the presence or absence of 1 mM, β-N ? methylamino-L-alanine (BMAA) dissolved in 10 mM NaHCO3 (Sigma). The oxygenation of the aCSF was carried out by bubbling the solution with a mixture of 95% O2 and 5% CO2 during the entire procedure. At the end of incubation, the brain slices were homogenized with homogenizing buffer [50 mM Tris·HCl (pH 7.4), 8.5% (wt/vol) sucrose, 2 mM EDTA, 2 mM EGTA, 10 mM (3-mercaptoethanol, 5 mM benzamidine, 0.5 mM 4-(2-Aminoethyl) benzenesulfonyl fluoride hydrochloride (AEBSF), 4 μg/mL pepstatin A, and 10 μg/mL each of aprotinin and leupepin] at a ratio of 9.0 mL buffer/1.0 g tissue slices. The homogenates were divided into two parts. One part was centrifuged at 16,000×g for 10 min, and the resulting supernatant was used to assay protein phosphatase 2A (PP2A) activity. Into the other half, an equal volume of phosphatase-inhibitor mixture (20 mM 3-glycerophosphate, 2 mM Na3VO4, and 100 mM NaF) was added immediately, and the samples were used for Western blots.
Protein was fractionated by 10% SDS/PAGE, transferred to PVDF membrane, and then blocked with 5% skim milk for 1 h at room temperature. The membrane was probed with anti-IPP2A (5G6, 1:1, 500) (7), anti-I2P2A (10E7, 1:1, 600) (7), anti-tau ˜92e; 1:5,000) (8), anti-tau (R134d; 1:5 000) (9), anti-tau pSer^262/^356 (12E8; 1:500) (10, anti-tau pSer^199, anti-tau pThr^205, anti-tau pThr^212, and pSer^396 (1:1,000) (Biosource), anti-GAPDH (1:2,000) (Santa Cruz Biotechnology), anti-PP2Ac (1:10 000) (BD Transduction Lab), anti pY^307-PP2A and anti-DML^309-PP2A (1:1,000) (Millipore), anti-GSK-3(α/β), anti-pS^9-GSK-3 β, anti-ERK1/2, anti-pT^202/Y^204-ERK1/2, anti-MEK1/2, anti-p9^17/221-MEK1/2, anti-CAMKII, anti-pT^286-CAMKII, anti-p70 S6 kinase, anti-pT^389-p70 S6 kinase, anti-SAPK/JNK, and anti-pT^183/Y^185-SAPK/JNK (1:1,000) (Cell Signaling Technology). The membrane then was incubated with HRP-conjugated secondary antibody (Jackson ImmunoResearch). The protein bands were detected with the enhanced chemiluminescence reagents (Thermo Scientific). Band intensity was measured by Multi-Gauge V3 software (Fuji Photo Film).

[1] = target: bovine purified PP2A holoenzyme (Bos taurus, UniProt P67774); test: In vitro PP2A activity assay with purified PP2A holoenzyme; format: biochemical; details: purified PP2A holoenzyme in the presence or absence of BMAA
bovine purified PP2A holoenzyme, sequence (Q32PI5 whole entry): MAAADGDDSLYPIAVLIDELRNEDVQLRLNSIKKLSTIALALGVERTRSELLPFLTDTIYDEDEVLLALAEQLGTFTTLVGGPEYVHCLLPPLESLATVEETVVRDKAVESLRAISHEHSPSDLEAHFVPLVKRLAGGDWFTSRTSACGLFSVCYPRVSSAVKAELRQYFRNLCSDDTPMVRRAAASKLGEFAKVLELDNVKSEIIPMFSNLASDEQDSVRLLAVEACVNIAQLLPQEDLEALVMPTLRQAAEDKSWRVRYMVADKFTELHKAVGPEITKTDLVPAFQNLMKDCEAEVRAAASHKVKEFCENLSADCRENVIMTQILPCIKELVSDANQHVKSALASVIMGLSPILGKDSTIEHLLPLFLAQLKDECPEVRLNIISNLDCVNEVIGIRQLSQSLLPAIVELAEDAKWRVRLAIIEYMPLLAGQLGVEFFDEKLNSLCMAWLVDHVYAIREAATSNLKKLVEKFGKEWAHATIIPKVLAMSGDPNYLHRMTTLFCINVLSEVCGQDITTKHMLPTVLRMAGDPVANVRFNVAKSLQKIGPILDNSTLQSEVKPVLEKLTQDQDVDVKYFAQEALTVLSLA
bovine purified PP2A holoenzyme, sequence (P67774 whole entry): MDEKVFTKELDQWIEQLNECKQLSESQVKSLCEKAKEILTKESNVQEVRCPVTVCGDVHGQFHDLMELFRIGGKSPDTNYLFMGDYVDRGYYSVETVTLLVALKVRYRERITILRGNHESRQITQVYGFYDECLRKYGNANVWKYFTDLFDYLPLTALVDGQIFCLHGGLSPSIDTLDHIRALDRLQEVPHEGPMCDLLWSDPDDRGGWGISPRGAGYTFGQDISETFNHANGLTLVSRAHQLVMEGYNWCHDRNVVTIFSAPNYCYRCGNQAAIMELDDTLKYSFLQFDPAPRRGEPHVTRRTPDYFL
Text: No effect of BMAA on PP2A activity was found.

CNC[C@H](N)C(=O)O [BMAA, β-N-methylamino-L-alanine]
PP2A activity (PP2A): significantly decreased
increase in phosphorylation of tau at Ser199 (tau): 2.6 fold
increase in phosphorylation of tau at Ser262/356 (tau): 3.4 fold
increase in phosphorylation of tau at Thr205 (tau): 1.8 fold
increase in phosphorylation of tau at Thr212 (tau): 3.7 fold
phosphorylation of tau at Ser396 (tau): not any significant change
direct effect on PP2A activity [1]: No effect
